Reference: patent publication US20250049741A1, “COMPOSITION FOR PREVENTING OR TREATING ALZHEIMER'S DISEASE COMPRISING PHOSPHOLIPASE C ACTIVATOR AS AN ACTIVE INGREDIENT” (Korea University Research and Business Foundation, priority 2021, published 2025)

Tests used:
Format in all cases: cell-based, Sprague-Dawley rats
[1] = tested on: CA1 PCs in rat hippocampal slices; test: Ex vivo eCB / S-eCB mobilization protocol: eIPSC amplitudes by whole-cell voltage-clamp
From the text: To test the acute effect of AβO on hippocampal S-eCB mobilization, hippocampal slices from Sprague-Dawley rats (SD, 2 to 3 weeks old, DaeHan Biolink, Co., Ltd., Korea) were used. Male and female rats were used in all in vitro experiments. To test the chronic effect of AβO on hippocampus-dependent memory impairments caused by amyloidosis, the 5XFAD mouse model (6 to 7 months old, #34840-JAX, Jackson Laboratory, USA), which is a mouse model of Alzheimer's disease that mimics AβO depositions, was used. C57BL/6 mice (6 to 7 months old, KOATECH, Korea) were used as wild type (WT) control mice for 5XFAD mice. Male 5XFAD and C57BL/6 mice were used for all in vivo behavioral experiments. The 5XFAD mouse genotypes were identified by polymerase chain reaction (PCR) using DNA extracted from the tails of the mice. All animal-related procedures followed the guidelines of the Institutional Animal Care and Use Committee of Korea University (guidelines for SD rats: KUIACUC-2017-103, guidelines for C57BL/6 and 5XFAD mice: KUIACUC-2019-0068).
(§1) Soluble AβO was prepared according to a previous study (BMC Biol. 2020; 18(1):7). Specifically, Aβ1-42 (Aβ) and a scrambled form of Aβ as a control peptide were purchased in powder form. Aβ and scrambled Aβ were dissolved for monomerization in 1,1,1,3,3,3-hexafluoro-2-propanol (HFIP, Sigma Aldrich, USA) at a final concentration of 1 mM, and the solution was incubated for 90 minutes. After the HFIP was evaporated, the remaining thin and clear film of Aβ or scrambled Aβ was dissolved in dimethyl sulfoxide (DMSO, Sigma Aldrich, USA) to prepare 5 mM Aβ or scrambled Aβ stocks, which were aliquoted and frozen at −20° C. Aβ or scrambled Aβ stocks were thawed and diluted to 100 μM in artificial cerebrospinal fluid (ACSF). Thereafter, Aβ or scrambled Aβ stocks were incubated for oligomerization for 18 hours. The final AβO or scrambled AβO stock solution was diluted to a final concentration of 200 nM in 31.2 ml of ACSF, and rat hippocampal slices were treated with the stock solution for 20 minutes in a recovery chamber before measurement of brain signals. In control experiments for normal brain conditions using a vehicle, rat hippocampal slices were treated with 0.004% DMSO in ACSF.
(§2) The brains of SD rats were isolated following decapitation under isoflurane-induced anesthesia and transferred into ice-cold ACSF containing 126 mM NaCl, […], 1.25 mM NaH2PO4, 2 mM MgSO4, 2 mM CaCl2), 25 mM NaHCO3, and 10 mM glucose (pH 7.2 to 7.4). The ACSF was continuously oxygenated with 95% O2/5% CO2. Horizontal hippocampal slices (350 μm thickness) were obtained using a vibratome (VT1000S, Leica Biosystems, Germany) and immediately incubated at room temperature in a submerged chamber perfused with oxygenated ACSF for at least 1 hour.
To quantify eCB mobilization, the changes in eCB mobilization-induced Schaffer collateral (SC) nerve bundle stimulation-evoked inhibitory postsynaptic current (eIPSC) amplitudes were measured in CA1 PCs through the whole-cell voltage-clamp technique. The whole-cell voltage-clamp technique in CA1 PCs was performed using a MultiClamp 700B amplifier (Molecular Devices, USA) under an infrared differential interference contrast video microscope (BW51W, Olympus, Japan), using a borosilicate electrode (tip resistance: 4 to 8 MΩ) that was filled with an intracellular solution containing 145 mM CsCl, 10 mM HEPES, 2 mM EGTA, 4 mM QX-314, 4 mM Mg-ATP, 0.4 mM […], pH 7.2 to 7.3, and 270 to 280 mOsm/L. To record eIPSCs in the CA1 PCs, a stimulating electrode (A-M Systems, USA) was placed in a stratum radiatum to stimulate the SC pathway that carries CA3 PC axons. Electrical stimulation pulses of 200 to 400 μA amplitudes (20 to 40 μs) were generated using a constant current stimulator (model DS3, Digitimer Ltd., UK). eIPSCs were recorded in CA PCs every 1 second while maintaining the membrane potential at −70 mV.

[2] = tested on: hippocampal CA3-CA1 excitatory synapses; test: S-eCB mobilization induced spike timing-dependent potentiation (tLTP) protocol, EPSP slope
Procedure: as §1, §2

[3] = tested on: PLCβ1; test: Western blot of PLCβ1 in rat hippocampal slices; settings: AβO-treated rat hippocampal slices
Procedure: as §1, with “The final AβO or scrambled AβO stock solution was diluted to a final concentration of 200 nM in 31.2 ml of ACSF, and rat hippocampal slices were treated with the stock solution for 20 minutes in a recovery chamber before measurement of brain signals. In control experiments for normal brain conditions using a vehicle, rat hippocampal slices were treated with 0.004% DMSO in ACSF.” left out
Hippocampal PLCβ1 of SD rats and C57BL/6 or 5XFAD mice were prepared from homogenized hippocampi dissolved in 200 μL of RIPA buffer (Bio-Rad, USA), and were resolved on non-reducing 10% tris-glycine-sodium dodecyl sulfate-polyacrylamide gel electrophoresis (SDS-PAGE) gels (Bio-Rad, USA) using 4×Laemmli sample buffers (Bio-Rad, USA). […] Immunoreactivity was confirmed with enhanced chemiluminescence (Bio-Rad, USA) using a Fluorchem E system (ProteinSimple, USA) and analyzed with ImageJ software. […]

[4] = DMSO-treated rat hippocampal slices, D-AP5 50 μM or AM251 3 μM

## Cc1c(C(=O)NN2CCCCC2)nn(-c2ccc(Cl)cc2Cl)c1-c1ccc(I)cc1 [AM251]
[1]; AM251 3 μM, DHPG puff alone
  effect on the DHPG-induced decrease of eIPSC amplitude (eCB mobilization): blocked the decrease in amplitude

## N[C@H](CCCP(=O)(O)O)C(=O)O [D-AP5, D-2-amino-5-phosphonovaleric acid]
[2]; [4]
  mGluR5-mediated LTD in the presence of antagonist: induced in both the test and control pathways
  tLTP induction (EPSP slope, test pathway), effect of antagonist: completely blocked

## N[C@H](C(=O)O)c1cc(O)cc(O)c1 [DHPG, (S)-3,5-dihydroxyphenylglycine]
[1]; DHPG (50 μM) puff alone, rat hippocampal slices, mean±SEM
  first ten eIPSC amplitudes as % of the mean eIPSC amplitude measured at the baseline before the DHPG puff: 79±7%
[1]; DHPG puff paired with 60-s-long postsynaptic neural spike trains at 1 Hz, DMSO-treated rat hippocampal slices, mean±SEM
  eIPSC amplitude as % of the baseline eIPSC amplitude (S-eCB mobilization): 62±4%

## Cc1cc(C(=O)O)ccc1[C@H](N)C(=O)O [LY367385]
[1]; LY367385 100 μM, DMSO-treated rat hippocampal slices
  eIPSC amplitudes following 60-s-long DHPG puff during 1 Hz neural spikes in the presence of mGluR1 antagonist: decreased

## Cc1cccc(C#Cc2ccccc2)n1 [MPEP, 2-methyl-6-(phenylethynyl) pyridine]
[1]; MPEP 10 μM, DMSO-treated, AβO-treated or scrambled AβO-treated rat hippocampal slices
  eIPSC amplitudes following DHPG puff during 1 Hz neural spikes in the presence of mGluR5 antagonist: did not significantly change

## COc1ccc2c(c1)CC[C@@H]1[C@@H]2CC[C@]2(C)[C@@H](NCCCCCCN3C(=O)C=CC3=O)CC[C@@H]12 [U73122]
[1]; U73122 5 μM, DMSO-treated rat hippocampal slices, similar in AβO- and scrambled AβO-treated slices
  synergistic enhancement in the suppression of eIPSC amplitudes (S-eCB mobilization), effect of PLCβ blocker: completely blocked

## AβO: soluble amyloid beta oligomer prepared from Aβ1-42 peptide powder (Bachem)
[2]; AβO-treated compared to DMSO-treated rat hippocampal slices
  mGluR-LTD in the control pathway: not affected
[2]; AβO-treated rat hippocampal slices
  induction of tLTP in the test pathway: completely blocked
[3]
  protein expression levels of PLCβ1 compared to DMSO-treated slices: remarkably decreased
[1]; slices treated with 200 nM peptide for 20 minutes, in the presence of LY367385 100 μM
  eIPSC amplitudes / suppression of eIPSC amplitudes following DHPG puff during 1 Hz neural spikes in peptide-treated slices: completely blocked
